Like-named read-outs stand apart in the source and are kept apart here.
Assay: Bioassay: distribution of I-123-labeled compounds in organs of rats after tail vein injection (percent dose/gram, brain/blood ratio)
Format: in vivo, Female Sprague-Dawley rats
Settings: for Brain/Blood Ratio 5 min. / tissue uptake at 5 min: 5 minutes post-injection; for Brain/Blood Ratio 60 min. / tissue uptake at 1 h: 60 minutes post-injection; for tissue uptake at 5 min / tissue uptake at 1 h: rat, iv, 0.05 to 1.0 mCi, two rats
Method: Female Sprague-Dawley rats weighing approximately 150 g were anesthetized with sodium pentobarbital and were injected in a tail vein with from 0.05 to 1.0 mCi (in a volume of 0.2 to 0.5 ml) of the I-123-labeled compound. Two specimens were utilized for each test.
Two animals each were sacrificed at 5 minutes and 60 minutes post-injection, the tails discarded and the amount of activity in various organs determined. Each organ was counted at a standardized geometry with a sodium iodide crystal scintillation counter adjusted for the 159 keV emission of I-123. The organs were also weighed to one thousandth of a gram and the activity calculated as a percent of administered dose per gram of organ weight.
The ratio of brain-to-blood activity was calculated as a percent of administered dose per gram.

[1] = blood, read-out: Percent Dose/Gram Blood 5 min.
[2] = blood, read-out: Percent Dose/Gram Blood 60 min.
[3] = brain, read-out: Percent Dose/Gram Brain 5 min.
[4] = brain, read-out: Percent Dose/Gram Brain 60 min.
[5] = heart, read-out: Percent Dose/Gram Heart 5 min.
[6] = heart, read-out: Percent Dose/Gram Heart 60 min.

CC(Cc1ccccc1)Nc1ccccc1[123I] (racemic) [I--123-N--(o-iodophenyl)amphetamine (dl)]
Brain/Blood Ratio 5 min.: 1.81 | Brain/Blood Ratio 60 min.: 0.75 | tissue uptake at 5 min [1]: 0.53 %ID/g | tissue uptake at 1 h [2]: 0.55 %ID/g | tissue uptake at 5 min [3]: 0.96 %ID/g | tissue uptake at 1 h [4]: 0.41 %ID/g | tissue uptake at 5 min [5]: 1.64 %ID/g | tissue uptake at 1 h [6]: 0.57 %ID/g

CC(Cc1ccccc1)NCCc1ccccc1[123I] (racemic) [I--123-N--o-iodo-β-phenethylamphetamine (dl)]
Brain/Blood Ratio 5 min.: 7.13 | Brain/Blood Ratio 60 min.: 7.86 | tissue uptake at 5 min [1]: 0.12 %ID/g | tissue uptake at 1 h [2]: 0.11 %ID/g | tissue uptake at 5 min [3]: 0.82 %ID/g | tissue uptake at 1 h [4]: 0.83 %ID/g | tissue uptake at 5 min [5]: 2.02 %ID/g | tissue uptake at 1 h [6]: 0.48 %ID/g

CC(Cc1ccccc1)NCc1ccccc1[123I] (racemic) [I--123-N--o-iodobenzylamphetamine (dl)]
Brain/Blood Ratio 5 min.: 3.93 | Brain/Blood Ratio 60 min.: 1.89 | tissue uptake at 5 min [1]: 0.27 %ID/g | tissue uptake at 1 h [2]: 0.19 %ID/g | tissue uptake at 5 min [3]: 1.06 %ID/g | tissue uptake at 1 h [4]: 0.36 %ID/g | tissue uptake at 5 min [5]: 0.72 %ID/g | tissue uptake at 1 h [6]: 0.37 %ID/g

CCN(Cc1ccccc1I)Cc1ccccc1[123I] [I--123-N,N--di-o-iodobenzylethylamine]
Brain/Blood Ratio 5 min.: 0.68 | Brain/Blood Ratio 60 min.: 0.88 | tissue uptake at 5 min [1]: 0.52 %ID/g | tissue uptake at 1 h [2]: 0.28 %ID/g | tissue uptake at 5 min [3]: 0.36 %ID/g | tissue uptake at 1 h [4]: 0.25 %ID/g | tissue uptake at 5 min [5]: 2.11 %ID/g | tissue uptake at 1 h [6]: 0.5 %ID/g

[123I]c1ccccc1CCN(CCc1ccccc1)CCc1ccccc1 [I--123-N,N--di-β-phenethyl-o-iodo-β-phenethylamine]
Brain/Blood Ratio 5 min.: 0.24 | Brain/Blood Ratio 60 min.: 0.17 | tissue uptake at 5 min [1]: 0.83 %ID/g | tissue uptake at 1 h [2]: 0.65 %ID/g | tissue uptake at 5 min [3]: 0.2 %ID/g | tissue uptake at 1 h [4]: 0.11 %ID/g | tissue uptake at 5 min [5]: 1.18 %ID/g | tissue uptake at 1 h [6]: 0.62 %ID/g

[123I]c1ccccc1CN(CCc1ccccc1)CCc1ccccc1 [I--123-N,N--di-β-phenethyl-o-iodobenzylamine]
Brain/Blood Ratio 5 min.: 1.03 | tissue uptake at 5 min [1]: 1.03 %ID/g | tissue uptake at 5 min [3]: 1.06 %ID/g | tissue uptake at 5 min [5]: 3.61 %ID/g

[123I]c1ccc(N(Cc2ccccc2)Cc2ccccc2)cc1 [I--123-N,N--dibenzyl-p-iodoaniline]
Brain/Blood Ratio 5 min.: 0.53 | Brain/Blood Ratio 60 min.: 0.54 | tissue uptake at 5 min [1]: 0.66 %ID/g | tissue uptake at 1 h [2]: 0.41 %ID/g | tissue uptake at 5 min [3]: 0.35 %ID/g | tissue uptake at 1 h [4]: 0.22 %ID/g | tissue uptake at 5 min [5]: 2.1 %ID/g | tissue uptake at 1 h [6]: 0.46 %ID/g

CC(C)N(Cc1ccccc1[123I])C(C)C [I--123-N,N--diisopropyl-o-iodobenzylamine]
Brain/Blood Ratio 5 min.: 5.73 | Brain/Blood Ratio 60 min.: 1.31 | tissue uptake at 5 min [1]: 0.25 %ID/g | tissue uptake at 1 h [2]: 0.35 %ID/g | tissue uptake at 5 min [3]: 1.4 %ID/g | tissue uptake at 1 h [4]: 0.46 %ID/g | tissue uptake at 5 min [5]: 2.12 %ID/g | tissue uptake at 1 h [6]: 0.46 %ID/g

Cc1cccc(C)c1NC(=O)CNCCc1ccccc1[123I] [I--123-N--(2,6-dimethylphenylcarbamoyl)methyl-o-iodo-β-phenethylamine]
Brain/Blood Ratio 5 min.: 1.33 | Brain/Blood Ratio 60 min.: 0.31 | tissue uptake at 5 min [1]: 0.55 %ID/g | tissue uptake at 1 h [2]: 0.26 %ID/g | tissue uptake at 5 min [3]: 0.73 %ID/g | tissue uptake at 1 h [4]: 0.08 %ID/g | tissue uptake at 5 min [5]: 0.74 %ID/g | tissue uptake at 1 h [6]: 0.21 %ID/g

[123I]c1ccccc1NCc1ccccc1 [I--123-N--benzyl-o-iodoaniline]
Brain/Blood Ratio 5 min.: 2.23 | Brain/Blood Ratio 60 min.: 0.80 | tissue uptake at 5 min [1]: 0.3 %ID/g | tissue uptake at 1 h [2]: 0.36 %ID/g | tissue uptake at 5 min [3]: 0.67 %ID/g | tissue uptake at 1 h [4]: 0.29 %ID/g | tissue uptake at 5 min [5]: 0.34 %ID/g | tissue uptake at 1 h [6]: 1.25 %ID/g

[123I]c1ccc(NCc2ccccc2)cc1 [I--123-N--benzyl-p-iodoaniline]
Brain/Blood Ratio 5 min.: 1.57 | Brain/Blood Ratio 60 min.: 0.51 | tissue uptake at 5 min [1]: 1 %ID/g | tissue uptake at 1 h [2]: 0.86 %ID/g | tissue uptake at 5 min [3]: 1.57 %ID/g | tissue uptake at 1 h [4]: 0.44 %ID/g | tissue uptake at 5 min [5]: 1.28 %ID/g | tissue uptake at 1 h [6]: 0.59 %ID/g

CCNCc1ccccc1[123I] [I--123-N--ethyl-o-iodobenzylamine]
Brain/Blood Ratio 5 min.: 4.22 | Brain/Blood Ratio 60 min.: 1.31 | tissue uptake at 5 min [1]: 0.25 %ID/g | tissue uptake at 1 h [2]: 0.34 %ID/g | tissue uptake at 5 min [3]: 1.06 %ID/g | tissue uptake at 1 h [4]: 0.44 %ID/g | tissue uptake at 5 min [5]: 0.79 %ID/g | tissue uptake at 1 h [6]: 0.44 %ID/g

CC(C)NCc1cccc([123I])c1 [I--123-N--isopropyl-m-iodobenzylamine]
Brain/Blood Ratio 5 min.: 7.35 | Brain/Blood Ratio 60 min.: 4.16 | tissue uptake at 5 min [1]: 0.22 %ID/g | tissue uptake at 1 h [2]: 0.21 %ID/g | tissue uptake at 5 min [3]: 1.61 %ID/g | tissue uptake at 1 h [4]: 0.85 %ID/g | tissue uptake at 5 min [5]: 0.99 %ID/g | tissue uptake at 1 h [6]: 0.46 %ID/g

CC(C)NCCc1ccccc1[123I] [I--123-N--isopropyl-o-iodo-β-phenethylamine]
Brain/Blood Ratio 5 min.: 8.58 | Brain/Blood Ratio 60 min.: 5.83 | tissue uptake at 5 min [1]: 0.12 %ID/g | tissue uptake at 1 h [2]: 0.12 %ID/g | tissue uptake at 5 min [3]: 1.03 %ID/g | tissue uptake at 1 h [4]: 0.67 %ID/g | tissue uptake at 5 min [5]: 0.88 %ID/g | tissue uptake at 1 h [6]: 0.27 %ID/g

CC(C)Nc1ccccc1[123I] [I--123-N--isopropyl-o-iodoaniline]
Brain/Blood Ratio 5 min.: 1.13 | Brain/Blood Ratio 60 min.: 0.26 | tissue uptake at 5 min [1]: 0.78 %ID/g | tissue uptake at 1 h [2]: 0.5 %ID/g | tissue uptake at 5 min [3]: 0.88 %ID/g | tissue uptake at 1 h [4]: 0.13 %ID/g | tissue uptake at 5 min [5]: 0.75 %ID/g | tissue uptake at 1 h [6]: 0.29 %ID/g

CC(C)NCc1ccccc1[123I] [I--123-N--isopropyl-o-iodobenzylamine, I-123-N-isopropyl-o-iodobenzylamine]
Brain/Blood Ratio 5 min.: 7.63 | Brain/Blood Ratio 60 min.: 1.04 | tissue uptake at 5 min [1]: 0.16 %ID/g | tissue uptake at 1 h [2]: 0.62 %ID/g | tissue uptake at 5 min [3]: 1.21 %ID/g | tissue uptake at 1 h [4]: 0.64 %ID/g | tissue uptake at 5 min [5]: 0.72 %ID/g | tissue uptake at 1 h [6]: 0.47 %ID/g

CC(C)Nc1ccc([123I])cc1 [I--123-N--isopropyl-p-iodoaniline]
Brain/Blood Ratio 5 min.: 2.55 | Brain/Blood Ratio 60 min.: 0.33 | tissue uptake at 5 min [1]: 0.48 %ID/g | tissue uptake at 1 h [2]: 0.79 %ID/g | tissue uptake at 5 min [3]: 1.23 %ID/g | tissue uptake at 1 h [4]: 0.26 %ID/g | tissue uptake at 5 min [5]: 1.01 %ID/g | tissue uptake at 1 h [6]: 0.61 %ID/g

CNCCc1ccccc1[123I] [I--123-N--methyl-o-iodo-β-phenethylamine]
Brain/Blood Ratio 5 min.: 0.49 | tissue uptake at 5 min [1]: 1.16 %ID/g | tissue uptake at 5 min [3]: 0.57 %ID/g | tissue uptake at 5 min [5]: 1.07 %ID/g

[123I]c1ccccc1CCN1CCCCC1 [I--123-N--o-iodo-β-phenethylpiperidine]
Brain/Blood Ratio 5 min.: 2.35 | tissue uptake at 5 min [1]: 0.46 %ID/g | tissue uptake at 5 min [3]: 1.08 %ID/g | tissue uptake at 5 min [5]: 1.68 %ID/g

CC1CCC(C)N1Cc1ccccc1[123I] (stereo not shown) [I--123-N--o-iodobenzyl-2,5-dimethylpyrrolidine]
Brain/Blood Ratio 5 min.: 3.17 | Brain/Blood Ratio 60 min.: 1.52 | tissue uptake at 5 min [1]: 0.37 %ID/g | tissue uptake at 1 h [2]: 0.15 %ID/g | tissue uptake at 5 min [3]: 1.16 %ID/g | tissue uptake at 1 h [4]: 0.22 %ID/g | tissue uptake at 5 min [5]: 1.03 %ID/g | tissue uptake at 1 h [6]: 0.46 %ID/g

CC1CCCC(C)N1Cc1ccccc1[123I] (stereo not shown) [I--123-N--o-iodobenzyl-2,6-dimethylpiperidine]
Brain/Blood Ratio 5 min.: 3.32 | Brain/Blood Ratio 60 min.: 1.59 | tissue uptake at 5 min [1]: 0.31 %ID/g | tissue uptake at 1 h [2]: 0.21 %ID/g | tissue uptake at 5 min [3]: 1.01 %ID/g | tissue uptake at 1 h [4]: 0.32 %ID/g | tissue uptake at 5 min [5]: 1.14 %ID/g | tissue uptake at 1 h [6]: 0.44 %ID/g

[123I]c1ccccc1CNc1ccccc1 [I--123-N--o-iodobenzylaniline]
Brain/Blood Ratio 5 min.: 1.70 | Brain/Blood Ratio 60 min.: 0.41 | tissue uptake at 5 min [1]: 0.61 %ID/g | tissue uptake at 1 h [2]: 0.41 %ID/g | tissue uptake at 5 min [3]: 1.02 %ID/g | tissue uptake at 1 h [4]: 0.17 %ID/g | tissue uptake at 5 min [5]: 0.83 %ID/g | tissue uptake at 1 h [6]: 0.31 %ID/g

[123I]c1ccccc1CN1CCCCC1 [I--123-N--o-iodobenzylpiperidine]
Brain/Blood Ratio 5 min.: 1.56 | Brain/Blood Ratio 60 min.: 0.91 | tissue uptake at 5 min [1]: 0.6 %ID/g | tissue uptake at 1 h [2]: 0.32 %ID/g | tissue uptake at 5 min [3]: 0.93 %ID/g | tissue uptake at 1 h [4]: 0.29 %ID/g | tissue uptake at 5 min [5]: 0.56 %ID/g | tissue uptake at 1 h [6]: 0.38 %ID/g

CCCNCCc1ccccc1[123I] [I--123-N--propyl-o-iodo-β-phenethylamine]
Brain/Blood Ratio 5 min.: 4.03 | Brain/Blood Ratio 60 min.: 2.20 | tissue uptake at 5 min [1]: 0.29 %ID/g | tissue uptake at 1 h [2]: 0.2 %ID/g | tissue uptake at 5 min [3]: 1.17 %ID/g | tissue uptake at 1 h [4]: 0.44 %ID/g | tissue uptake at 5 min [5]: 1.54 %ID/g | tissue uptake at 1 h [6]: 0.23 %ID/g

CCCNCc1ccccc1[123I] [I--123-N--propyl-o-iodobenzylamine]
Brain/Blood Ratio 5 min.: 3.81 | Brain/Blood Ratio 60 min.: 1.84 | tissue uptake at 5 min [1]: 0.27 %ID/g | tissue uptake at 1 h [2]: 0.32 %ID/g | tissue uptake at 5 min [3]: 1.03 %ID/g | tissue uptake at 1 h [4]: 0.59 %ID/g | tissue uptake at 5 min [5]: 0.77 %ID/g | tissue uptake at 1 h [6]: 0.59 %ID/g

CC(C)(C)NCc1ccccc1[123I] [I--123-N--t-butyl-o-iodobenzylamine, I-123-N-t-butyl-o-iodobenzylamine]
Brain/Blood Ratio 5 min.: 8.85 | Brain/Blood Ratio 60 min.: 8.16 | tissue uptake at 5 min [1]: 0.17 %ID/g | tissue uptake at 1 h [2]: 0.11 %ID/g | tissue uptake at 5 min [3]: 1.49 %ID/g | tissue uptake at 1 h [4]: 0.89 %ID/g | tissue uptake at 5 min [5]: 1.04 %ID/g | tissue uptake at 1 h [6]: 0.49 %ID/g

— patent US4360511A, “Amines useful as brain imaging agents” (Medi-Physics, Inc., priority 1980, dated 1982)
